# ChEMBL document CHEMBL3046755, “Synthesis and Herbicidal Activity of N-Alkyl-N-(substituted benzyl)-4-halo-2-alkenamides” (1999)
# The source made the active and inactive calls. No cut-off for these calls is given here.
# Assays:
# [1] = tested on: Echinochloa oryzicola; assay: Herbicidal activity against Echinochloa oryzicola seedlings assessed as induction of seedlings damage measured after 3 weeks post compound application through paddy water; format: functional
# [2] = tested on: Echinochloa oryzicola; assay: Light dependent herbicidal activity against Echinochloa oryzicola seedlings assessed as inhibition of seedlings growth at 10 ppm measured after 6 days post compound application under greenhouse conditions at 25 +/- 2 degC with day light; format: functional, organism-based
# [3] = tested on: Echinochloa oryzicola; assay: Potency index, ratio of ED90 for chlomethoxyfen to ED90 for test compound for herbicidal activity against Echinochloa oryzicola seedling; format: functional
# [4] = tested on: Echinochloa oryzicola; assay: Light dependent herbicidal activity against Echinochloa oryzicola seedlings assessed as inhibition of seedlings growth at 10 ppm measured after 6 days post compound application under greenhouse conditions at 25 +/- 2 degC under dark conditions; format: functional, organism-based
SMILES,ED90 [1] [gAi/ha],growth inhibition (GI) [2],Ratio [3],growth inhibition (GI) [4]
Cc1ccc(CN(CC(C)C)C(=O)/C=C/C(C)Cl)cc1 (racemic),125,Active,–,–
CCCCN(Cc1ccc(Cl)cc1)C(=O)/C=C/C(C)Cl (racemic),31,Active,–,–
CC(Cl)/C=C/C(=O)N(Cc1ccc(C(=O)O)cc1)CC(C)C (racemic),>5000,Active,–,–
CCCN(Cc1ccc(Cl)cc1)C(=O)/C=C/C(C)Cl (racemic),125,Active,–,–
CC(O)/C=C/C(=O)N(Cc1ccc(Cl)cc1)CC(C)C (racemic),>5000,Active,–,–
CC(Cl)/C=C/C(=O)N(Cc1cc(Cl)ccc1OS(C)(=O)=O)CC(C)C (racemic),>1000,Active,–,–
CC(Cl)/C=C/C(=O)N(Cc1ccc([N+](=O)[O-])cc1)CC(C)C (racemic),250,Active,–,–
CC(Br)/C=C/C(=O)N(Cc1ccc(Cl)cc1)CC(C)C (racemic),125,Active,–,–
CC(Cl)/C=C/C(=O)N(Cc1ccc(C#N)cc1Cl)CC(C)C (mixture of isomers),<16,Active,–,–
CC(Cl)/C=C/C(=O)N(Cc1ccc(Cl)cc1)C1CCCCC1 (racemic),31,Active,–,–
CC(Cl)/C=C/C(=O)N(Cc1cccc(C#N)c1)CC(C)C (racemic),500,Active,–,–
CC(Cl)/C=C/C(=O)N(Cc1ccc(C(F)(F)F)cc1)CC(C)C (racemic),31,Active,–,–
CC(Cl)/C=C/C(=O)N(Cc1ccc(Cl)cc1)CC(C)C (racemic),16,Active,10,–
CCCC(Br)/C=C/C(=O)N(Cc1ccc(Cl)cc1)CC(C)C (racemic),250,–,–,–
CC(Cl)/C=C/C(=O)N(C)Cc1ccc(Cl)cc1 (racemic),2000,Active,–,–
CC(Cl)/C=C/C(=O)N(Cc1cc(OS(C)(=O)=O)ccc1Cl)CC(C)C (racemic),31,Active,–,–
CCCOc1ccc(Cl)c(CN(CC(C)C)C(=O)/C=C/C(C)Cl)c1 (racemic),62,Active,–,–
CC(Cl)/C=C/C(=O)N(Cc1cc(Cl)c(C#N)cc1Br)CC(C)C (racemic),<16,Active,–,–
COc1cc(Cl)ccc1CN(CC(C)C)C(=O)/C=C/C(C)Cl (racemic),500,Active,–,–
CSc1ccc(CN(CC(C)C)C(=O)/C=C/C(C)Cl)cc1 (racemic),250,Active,–,–

SMILES,ED90 [1] [gAi/ha],growth inhibition (GI) [2],Ratio [3],growth inhibition (GI) [4]
CCOC(=O)c1ccc(CN(CC(C)C)C(=O)/C=C/C(C)Cl)cc1 (racemic),1000,Active,–,–
CCOc1cc(Oc2ccc(C(F)(F)F)cc2Cl)ccc1[N+](=O)[O-],–,Active,–,–
COc1ccc(Cl)c(CN(CC(C)C)C(=O)/C=C/C(C)Cl)c1 (racemic),31,Active,–,–
CCCOc1cc(CN(CC(C)C)C(=O)/C=C/C(C)Cl)ccc1Cl (racemic),31,Active,–,–
CCCCCCCCN(Cc1ccc(Cl)cc1)C(=O)/C=C/C(C)Cl (racemic),>5000,Active,–,–
CC(Cl)/C=C/C(=O)N(Cc1ccccc1C#N)CC(C)C (racemic),250,Active,–,–
CC(Cl)/C=C/C(=O)N(Cc1ccc(Cl)cc1)C(C)C (racemic),250,Active,–,–
CC(Cl)/C=C/C(=O)N(Cc1ccc(C(N)=O)cc1)CC(C)C (racemic),500,Active,–,–
CC(=O)Nc1ccc(CN(CC(C)C)C(=O)/C=C/C(C)Cl)cc1 (racemic),>5000,Active,–,–
CCOC(=O)c1cc(CN(CC(C)C)C(=O)/C=C/C(C)Cl)ccc1Cl (racemic),<16,Active,–,–
CC(Cl)/C=C/C(=O)N(Cc1ccc(S(C)(=O)=O)cc1)CC(C)C (racemic),>1000,Active,–,–
C=CCN(Cc1ccc(Cl)cc1)C(=O)/C=C/C(C)Cl (racemic),375,Active,–,–
CCCCCCC(Br)/C=C/C(=O)N(Cc1ccc(Cl)cc1)CC(C)C (racemic),5000,–,–,–
CCCCC(Br)/C=C/C(=O)N(Cc1ccc(Cl)cc1)CC(C)C (racemic),2500,–,–,–
CC(Cl)/C=C/C(=O)N(Cc1ccc(Cl)c(OS(C)(=O)=O)c1)CC(C)C (racemic),31,Active,–,–
COc1cc(Oc2ccc(Cl)cc2Cl)ccc1[N+](=O)[O-] [CHLOMETHOXYFEN],250,–,–,–
CC(Cl)/C=C/C(=O)N(Cc1ccc(C#N)cc1)CC(C)C (mixture of isomers),16,Active,–,–
CCC(Cl)/C=C/C(=O)N(Cc1ccc(Cl)cc1)CC(C)C (racemic),16,–,–,–
CCN(Cc1ccc(Cl)cc1)C(=O)/C=C/C(C)Cl (racemic),250,Active,–,–
CC(C)CN(Cc1ccc(Cl)cc1)C(=O)/C=C/C(Br)C(C)C (racemic),250,–,–,–

SMILES,ED90 [1] [gAi/ha],growth inhibition (GI) [2],Ratio [3],growth inhibition (GI) [4]
COc1cc(CN(CC(C)C)C(=O)/C=C/C(C)Cl)ccc1Cl (racemic),16,Active,–,–
CCCC(Cl)/C=C/C(=O)N(Cc1ccc(Cl)cc1)CC(C)C (racemic),500,–,–,–
CCC(C)N(Cc1ccc(Cl)cc1)C(=O)/C=C/C(C)Cl (racemic),375,Active,–,–
COc1cc(CN(CC(C)C)C(=O)/C=C/C(C)Cl)ccc1C#N (racemic),16,Active,–,–
CC(Cl)/C=C/C(=O)N(Cc1ccc(C=O)cc1)CC(C)C (racemic),1000,Active,–,–
CC(Cl)/C=C/C(=O)N(Cc1ccc(Cl)c([N+](=O)[O-])c1)CC(C)C (racemic),31,Active,–,–
CC(Cl)/C=C/C(=O)N(Cc1ccccc1)CC(C)C (stereo not given),125,Active,–,–
COc1ccc(Cl)cc1CN(CC(C)C)C(=O)/C=C/C(C)Cl (racemic),>1000,Active,–,–
CCCOCCN(C(=O)CCl)c1c(CC)cccc1CC,–,–,–,Active
CC(I)/C=C/C(=O)N(Cc1ccc(Cl)cc1)CC(C)C (racemic),250,Active,–,–
CC(Cl)/C=C/C(=O)N(Cc1ccc(Cl)cc1)C1CCCCCC1 (racemic),62,Active,–,–
CC(C)CN(Cc1ccc(Cl)cc1)C(=O)/C=C/CBr,>4000,–,–,–
CC(Cl)/C=C/C(=O)N(Cc1ccc(Cl)cc1Cl)CC(C)C (racemic),125,Active,–,–
CC(Cl)/C=C/C(=O)N(Cc1ccc(Cl)cc1)C(C)(C)C (racemic),>5000,Active,–,–
CCCCCCCCC(Br)/C=C/C(=O)N(Cc1ccc(Cl)cc1)CC(C)C (racemic),>5000,–,–,–
CC(Cl)/C=C/C(=O)N(CCC(C)C)Cc1ccc(Cl)cc1 (racemic),<16,Active,–,–
CC(Cl)/C=C/C(=O)N(Cc1ccc(Cl)cc1OS(C)(=O)=O)CC(C)C (racemic),500,Active,–,–
CCC(Br)/C=C/C(=O)N(Cc1ccc(Cl)cc1)CC(C)C (racemic),125,–,–,–
